Source: patent publication US8119681B2, “2-[1-phenyl-5-hydroxy or methoxy-4alpha-methyl-hexahydrocyclopenta [ƒ]indazole-5-YL]ethyl phenyl derivatives as glucocorticoid receptor ligands” (Merck Sharp & Dohme Corp., priority 2006, dated 2012)

Biological target: T1, human GR (Homo sapiens, UniProt P04150)
T1 sequence (P04150 1-777): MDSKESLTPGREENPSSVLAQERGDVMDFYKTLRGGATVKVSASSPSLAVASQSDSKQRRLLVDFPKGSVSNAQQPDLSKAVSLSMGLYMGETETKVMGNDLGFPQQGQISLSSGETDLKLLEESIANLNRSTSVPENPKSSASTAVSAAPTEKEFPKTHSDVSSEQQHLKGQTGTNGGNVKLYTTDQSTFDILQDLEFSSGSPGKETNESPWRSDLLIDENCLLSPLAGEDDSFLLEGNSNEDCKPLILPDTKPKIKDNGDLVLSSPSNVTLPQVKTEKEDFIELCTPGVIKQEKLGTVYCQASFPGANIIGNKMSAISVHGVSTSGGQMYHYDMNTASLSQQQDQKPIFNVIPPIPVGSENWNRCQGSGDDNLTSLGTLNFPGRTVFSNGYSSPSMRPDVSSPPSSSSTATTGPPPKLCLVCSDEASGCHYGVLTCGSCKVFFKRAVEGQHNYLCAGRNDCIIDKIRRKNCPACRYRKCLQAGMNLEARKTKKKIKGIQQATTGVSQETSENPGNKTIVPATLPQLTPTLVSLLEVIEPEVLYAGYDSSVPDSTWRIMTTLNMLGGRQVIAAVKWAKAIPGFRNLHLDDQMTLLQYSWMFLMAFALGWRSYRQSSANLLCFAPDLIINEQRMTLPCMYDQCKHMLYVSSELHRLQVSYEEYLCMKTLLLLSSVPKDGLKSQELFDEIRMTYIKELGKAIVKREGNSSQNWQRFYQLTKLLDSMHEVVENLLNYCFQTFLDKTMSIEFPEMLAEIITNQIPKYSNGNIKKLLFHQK
Assay: Transrepression Assay (GITAR), TNFα-β-lactamase reporter gene in U937 cells
Type: cell-based
Parameters: U937 cells contain an endogenous glucocorticoid receptor (GR); endogenous in cells; host or cells: U937 cells stably transfected with the TNF-α promoter/β-lactamase reporter only
Conditions: U-937; 100 nM dexamethasone = 100% activity; read-out: maximal activity in the transrepression assay
From the text: Transrepression Assay (GITAR)
This assay assesses the ability of test compounds to control transcription from the TNFα-β-lactamase reporter gene in U937 cells, a human myelomonocytic leukemia cell line that naturally expresses the human GR. The assay measures compound dependent-repression of the TNFa promoter linked to a reporter gene.
The human U937 cells that had been stably transfected with the TNF-α promoter driving β-lactamase are used for this assay. U937 cells contain an endogenous glucocorticoid receptor (GR). […] 50,000 cells/well are plated in 96 well black-walled plates the day of assay. Test compounds are added 10 μL/well, and cells are incubated at 37° C. for 30˜45 min. For assaying compounds, first dilute 1:10 in DMSO to make 1 mM, then further dilute 1:100 in medium to make 10× stock prior to adding to the cells. Add 50 ng/ml PMA (Sigma, cat# P8139) 10 μL/well to a final concentration 5 ng/ml, and 1 μg/ml LPS (Sigma, cat# L4130) 10 μL/well to a final concentration 100 ng/ml. Incubate cells at 370 C overnight for ˜18 hr. PMA is stored frozen as 100 μg/ml stock in DMSO. Dilute 1:10 in DMSO for a working stock of 10 μg/ml and store at −20 C. For assaying, dilute the 10 μg/ml working stock 1:200 in medium to make a 10× solution (50 ng/ml). Store frozen LPS at 1 mg/ml in PBS, dilute 1:1000 in medium to make 10× (1 μg/ml) for the assay. Add 6× loading buffer (CCF2-AM) 20 μL/well, and incubate at room temperature for 70˜90 min. […] The activity repressed by 100 nM dexamethasone alone is set as 100% activity.

Structure (SMILES) | Emax
CO[C@@]1(CCc2ccccc2C(N)=O)CCC2=Cc3c(cnn3-c3ccc(F)cc3)C[C@@]21C [Example 165, 2-{2-[(4αS,5R)-1-(4-fluorophenyl)-5-methoxy-4α-methyl-1,4,4α,5,6,7-hexahydrocyclopenta[f]indazol-5-yl]ethyl}benzamide] | 5 to 100%
C[C@]12Cc3cnn(-c4cccc(F)c4)c3C=C1CC[C@@]2(O)CCc1ccccc1S(N)(=O)=O [Example 140, 2-{2-[(4αS,5R)-1-(3-fluorophenyl)-5-hydroxy-4α-methyl-1,4,4α,5,6,7-hexahydrocyclopenta[f]indazol-5-yl]ethyl}benzenesulfonamide] | 5 to 100%
CCNC(=O)c1ccccc1CC[C@]1(O)CCC2=Cc3c(cnn3-c3ccccc3)C[C@@]21C [Example 27, N-ethyl-2-{2-[(4αS,5R)-5-hydroxy-4α-methyl-1-phenyl-1,4,4α,5,6,7-hexahydrocyclopenta[f]indazol-5-yl]ethyl}benzamide] | 5 to 100%
CC1(NC(=O)c2c(F)cccc2CC[C@]2(O)CCC3=Cc4c(cnn4-c4ccc(F)cc4)C[C@@]32C)CC1 [Example 63, 2-fluoro-6-{2-[(4αS,5R)-1-(4-fluorophenyl)-5-hydroxy-4α-methyl-1,4,4α,5,6,7-hexahydrocyclopenta[f]indazol-5-yl]ethyl}-N-(1-methylcyclopropyl)benzamide] | 5 to 100%
C[C@]12Cc3cnn(-c4ccc(F)cc4)c3C=C1CC[C@@]2(O)CCc1cccc(F)c1C1(NS(=O)(=O)C2CC2)CC1 [Example 100, N-[1-(2-fluoro-6-{2-[(4αS,5R)-1-(4-fluorophenyl)-5-hydroxy-4α-methyl-1,4,4α,5,6,7-hexahydrocyclopenta[f]indazol-5-yl]ethyl}phenyl)cyclopropyl]cyclopropanesulfonamide] | 5 to 100%
C[C@]12Cc3cnn(-c4ccc(F)cc4)c3C=C1CC[C@@]2(O)CCc1cccc(F)c1CNS(=O)(=O)CS(C)(=O)=O [Example 97, N-(2-fluoro-6-{2-[(4αS,5R)-1-(4-fluorophenyl)-5-hydroxy-4α-methyl-1,4,4α,5,6,7-hexahydrocyclopenta[f]indazol-5-yl]ethyl}benzyl)-1-(methylsulfonyl)methanesulfonamide] | 5 to 100%
C[C@]12Cc3cnn(-c4ccc(F)cc4)c3C=C1CC[C@@]2(O)CCc1cc(Cl)ccc1C(N)=O [Example 171, 4-chloro-2-{2-[(4αS,5R)-1-(4-fluorophenyl)-5-hydroxy-4α-methyl-1,4,4α,5,6,7-hexahydrocyclopenta[f]indazol-5-yl]ethyl}benzamide] | 5 to 100%
C[C@]12Cc3cnn(-c4ccc(F)cc4)c3C=C1CC[C@@]2(O)CCc1cccc(F)c1CNS(=O)(=O)c1ccco1 [Example 92, N-(2-fluoro-6-{2-[(4αS,5R)-1-(4-fluorophenyl)-5-hydroxy-4α-methyl-1,4,4α,5,6,7-hexahydrocyclopenta[f]indazol-5-yl]ethyl}benzyl)furan-2-sulfonamide] | 5 to 100%
C[C@H](NS(=O)(=O)C1CC1)c1ccccc1CC[C@]1(O)CCC2=Cc3c(cnn3-c3ccc(F)cc3)C[C@@]21C [Example 95, N-[(1S)-1-(2-{2-[(4αS,5R)-1-(4-fluorophenyl)-5-hydroxy-4α-methyl-1,4,4α,5,6,7-hexahydrocyclopenta[f]indazol-5-yl]ethyl}phenyl)ethyl]cyclopropanesulfonamide] | 5 to 100%
C[C@]12Cc3cnn(-c4ccc(F)cc4)c3C=C1CC[C@@]2(O)CCc1ccc(C#N)cc1C(N)=O [Example 180, 5-cyano-2-{2-[(4αS,5R)-1-(4-fluorophenyl)-5-hydroxy-4α-methyl-1,4,4α,5,6,7-hexahydrocyclopenta[f]indazol-5-yl]ethyl}benzamide] | 5 to 100%
C[C@]12Cc3cnn(-c4ccc(F)cc4)c3C=C1CC[C@@]2(O)CCc1ccc(F)c(F)c1C(N)=O [Example 183, 2,3-difluoro-6-{2-[(4αS,5R)-1-(4-fluorophenyl)-5-hydroxy-4α-methyl-1,4,4α,5,6,7-hexahydrocyclopenta[f]indazol-5-yl]ethyl}benzamide] | 5 to 100%
C[C@]12Cc3cnn(-c4ccc(F)cc4)c3C=C1CC[C@@]2(O)CCc1cccc(F)c1N1CCC1=O [Example 110, 1-(2-fluoro-6-{2-[(4αS,5R)-1-(4-fluorophenyl)-5-hydroxy-4α-methyl-1,4,4α,5,6,7-hexahydrocyclopenta[f]indazol-5-yl]ethyl}phenyl)azetidin-2-one] | 5 to 100%

Next, values leading:

Emax | Structure (SMILES)
5 to 100% | CCOC(=O)Nc1ccccc1CC[C@]1(O)CCC2=Cc3c(cnn3-c3ccc(F)cc3)C[C@@]21C [Example 12, ethyl (2-{2-[(4αS,5R)-1-(4-fluorophenyl)-5-hydroxy-4α-methyl-1,4,4α,5,6,7-hexahydrocyclopenta[f]indazol-5-yl]ethyl}phenyl)carbamate]
5 to 100% | CN(C)C(=O)Cc1ccccc1CC[C@]1(O)CCC2=Cc3c(cnn3-c3ccc(F)cc3)C[C@@]21C [Example 108, 2-(2-{2-[(4αS,5R)-1-(4-fluorophenyl)-5-hydroxy-4α-methyl-1,4,4α,5,6,7-hexahydrocyclopenta[f]indazol-5-yl]ethyl}phenyl)-N,N-dimethylacetamide]
5 to 100% | CCNC(=O)Nc1ccccc1CC[C@]1(O)CCC2=Cc3c(cnn3-c3ccc(F)cc3)C[C@@]21C [Example 13, N-ethyl-N′-(2-{2-[(4αS,5R)-1-(4-fluorophenyl)-5-hydroxy-4α-methyl-1,4,4α,5,6,7-hexahydrocyclopenta[f]indazol-5-yl]ethyl}phenyl)urea]
5 to 100% | COC(=O)Nc1ccccc1CC[C@]1(O)CCC2=Cc3c(cnn3-c3ccc(F)cc3)C[C@@]21C [Example 121, methyl (2-{2-[(4αS,5R)-1-(4-fluorophenyl)-5-hydroxy-4α-methyl-1,4,4α,5,6,7-hexahydrocyclopenta[f]indazol-5-yl]ethyl}phenyl)carbamate]
5 to 100% | CCNC(=O)Nc1c(F)cccc1CC[C@]1(O)CCC2=Cc3c(cnn3-c3ccc(F)cc3)C[C@@]21C [Example 132, N-ethyl-N′-(2-fluoro-6-{2-[(4αS,5R)-1-(4-fluorophenyl)-5-hydroxy-4α-methyl-1,4,4α,5,6,7-hexahydrocyclopenta[f]indazol-5-yl]ethyl}phenyl)urea]
5 to 100% | CCOC(=O)Nc1c(F)cccc1CC[C@]1(O)CCC2=Cc3c(cnn3-c3ccc(F)cc3)C[C@@]21C [Example 122, ethyl (2-fluoro-6-{2-[(4αS,5R)-1-(4-fluorophenyl)-5-hydroxy-4α-methyl-1,4,4α,5,6,7-hexahydrocyclopenta[f]indazol-5-yl]ethyl}phenyl)carbamate]
5 to 100% | C[C@]12Cc3cnn(-c4ccc(F)cc4)c3C=C1CC[C@@]2(O)CCc1ccccc1C#N [Example 20, 2-{2-[(4αS,5R)-1-(4-fluorophenyl)-5-hydroxy-4α-methyl-1,4,4α,5,6,7-hexahydrocyclopenta[f]indazol-5-yl]ethyl}benzonitrile]
5 to 100% | CCNC(=O)Cc1ccccc1CC[C@]1(O)CCC2=Cc3c(cnn3-c3ccc(F)cc3)C[C@@]21C [Example 106, N-ethyl-2-(2-{2-[(4αS,5R)-1-(4-fluorophenyl)-5-hydroxy-4α-methyl-1,4,4α,5,6,7-hexahydrocyclopenta[f]indazol-5-yl]ethyl}phenyl)acetamide]
5 to 100% | COC(=O)[C@@H](C)NC(=O)c1ccccc1CC[C@]1(O)CCC2=Cc3c(cnn3-c3ccc(F)cc3)C[C@@]21C [Example 72, methyl N-(2-{2-[(4αS,5R)-1-(4-fluorophenyl)-5-hydroxy-4α-methyl-1,4,4α,5,6,7-hexahydrocyclopenta[f]indazol-5-yl]ethyl}benzoyl)-D-alaninate]
